Reference: patent US8604059B2, “Thioxanthene derivatives for the treatment of infectious diseases” (BKG Pharma APS, priority 2009, dated 2013)
≈ marks a conversion by molar mass, not a printed value. Read-outs that look alike come from different tables or passages of the source.

Assays:
[1] = system: Multiresistant clinical isolates of S. aureus and S. epidermidis; experiment: Maximal reversal of resistance and synergistic effect (Table 4b); type: cell-based; settings: for MIC: antibiotic alone, median, ten strains in each group; for Fold enhanced, compound 1 0.60 ug/ml: enhancement of antibiotic by compound 1 at 0.60 ug/ml; for Fold enhanced, compound 2 0.98 ug/ml: enhancement of antibiotic by compound 2 at 0.98 ug/ml; for Fold enhanced, compound 3 0.30 ug/ml: enhancement of antibiotic by compound 3 at 0.30 ug/ml; for Fold enhanced, compound 4 0.75 ug/ml: enhancement of antibiotic by compound 4 at 0.75 ug/ml
Description: (§1) The maximal obtained reversal of resistance and synergistic effect was tested as previously described.
Strains: Multiresistant clinical isolates of S. aureus and S. epidermidis, Ten strains in each group.

[2] = system: Multiresistant clinical isolates E. coli; experiment: Maximal reversal of resistance and synergistic effect (Table 4c); type: cell-based
Description: as §1
Strains: Multiresistant clinical isolates E. coli, Ten strains in each group.

E. coli = experiment: MIC, microdilution broth, multiresistant clinical isolates (Table 1A); type: cell-based; settings: Escherichia coli; ten multiresistant clinical isolates; read-out: Median MIC E. coli
Description: (§2) Cell growth was tested using the Minimal Inhibitory Concentration (MIC) susceptibility tests by use of the microdilution broth method in accordance to the NCCLS Guidelines (NCCLS Guidelines, Methods for Dilution Antimicrobial Susceptibility Tests for Bacteria That Grow Aerobically; Approved Standard, Sixth Edition, Volume 23; Number 2). The minimum inhibitory concentration (MIC), is defined as the lowest concentration of drug which inhibits growth of the test organism, in the sense that no visible growth is detected (total inhibition of growth). In example 2, MIC of the compounds used on fungal microorgansims was determined from the IC90 measurements according to NCCLS Guidelines.
(§3) A log phase culture of bacteria was diluted with fresh pre-warmed Mueller-Hinton medium and adjusted to a defined OD at 600 nm in order to give a final concentration of 1×10^4-5 bacteria/ml medium. The bacterial culture was transferred to microtiter-plates and culture was added to each well. […] Trays were incubated at 37° C. by shaking in a robot analyzer, PowerWavex, software KC^4′ Kebo. Lab, Copenhagen, for 16 h and optical densities were measured at 600 nm during the incubation time in order to record growth curves. Wells containing bacterial culture without drug were used as controls to ensure correct inoculum size and bacterial growth during the incubation. Cultures were tested in order to detect contaminations. Each experiment was repeated in triplicate.
(§4) Ten strains in each test group.

E. faecalis = experiment: as above; type: cell-based; settings: Enterococcus faecalis; ten multiresistant clinical isolates; read-out: Median MIC E. faecalis
Description: as §2, §3, §4

E. faecium = experiment: as above; type: cell-based; settings: Enterococcus faecium; ten multiresistant clinical isolates; read-out: Median MIC E. faecium
Description: as §2, §3, §4

S. aureus = experiment: as above; type: cell-based; settings: Staphylococcus aureus; ten multiresistant clinical isolates; read-out: Median MIC S. aureus
Description: as §2, §3, §4

S. epidermidis = experiment: as above; type: cell-based; settings: Staphylococcus epidermidis; ten multiresistant clinical isolates; read-out: Median MIC S. epidermidis
Description: as §2, §3, §4

[3] = system: E. coli MDR clinical isolates; experiment: FIC index, synergy with antibiotics (Table 4a); type: cell-based; settings: 8 MDR E. coli, mean, compound at ¼ of MIC
Description: (§5) The effect of the compounds was tested according to the methods described in WO2005/105145. In brief, cell growth was tested using the MIC susceptibility tests by use of the microdilution broth method in accordance to the NCCLS Guidelines (NCCLS Guidelines, Methods for Dilution Antimicrobial Susceptibility Tests for Bacteria That Grow Aerobically; Approved Standard, Sixth Edition, Volume 23; Number 2).
(§6) The Fractional Inhibitory Concentration (FIC) index were calculated for each compound as described in WO2005/105145. Synergy was defined for Fractional Inhibitory Concentration (FIC) indices less than 0.5
E. coli: 8 in vivo-selected multidrug resistant clinical isolates of E. coli. Resistant to tetracycline, beta-lactams, fluoroquinolones, chloramphenicol and aminoglycoside

[4] = system: S. aureus MRSA clinical isolates; experiment: FIC index, synergy with antibiotics (Table 4a); type: cell-based, Staphylococcus aureus; settings: with Dicloxacillin; 8 MRSA; mean; compound at ¼ of MIC
Description: as §5, §6
Staphylococcus aureus: 8 (MRSA) in vivo-selected clinical isolates. Resistant to methicillin and beta-lactam antibiotics. Susceptible to teicoplanin chloramphenicol, fosfomycin, netilmicin and vancomycin.

[5] = system: E. faecalis MDR/VRE clinical isolates; experiment: FIC index, synergy with antibiotics (Table 4a); type: cell-based, Enterococcus faecalis; settings: 8 MDR/VRE E. faecalis, mean, compound at ¼ of MIC
Description: as §5, §6
Enterococcus faecalis: 8 multidrug resistant in vivo-selected clinical isolates. […] Expressing change in the cell wall precursor target as a major resistance mechanism (VanA gene expression).

Candida albicans = experiment: Synergy with fluconazole, broth microdilution NCCLS M27-A (Table 10); type: cell-based; settings: Candida albicans
Description: The isolates were subcultured for 24 h on Sabouraud glucose agar before susceptibility testing. Broth microdilution tests were performed according to NCCLS document M27-A (Ref: National Commitee for Clinical Laboratory Standards. (1997). Reference Method for Broth Dilution Antifungal Susceptibility Testing of Yeasts: Approved Standard M27-A. NCCLS, Wayne, Pa.) Microtitre plates were read spectrophotometrically at 530 nm, after mixing the wells by pipetting to resuspend yeast sediments. […] The Fractional Inhibitory Concentration (FIC) was calculated for the anti-infective agent alone and in combination with compound 3 and 4 (see table 4) as described above. Synergy was defined as a FIC index of <0.5.

## CC1(C)S[C@@H]2[C@H](NC(=O)[C@H](N)c3ccccc3)C(=O)N2[C@H]1C(=O)O [Ampicillin]
[1]
  MIC: 16 µg/mL
  Fold enhanced, compound 1 0.60 ug/ml: 4 (4)
  Fold enhanced, compound 2 0.98 ug/ml: 4 (4)
  Fold enhanced, compound 3 0.30 ug/ml: 8
  Fold enhanced, compound 4 0.75 ug/ml: 4 (4)
[2]; Escherichia coli, antibiotic alone, median, ten strains
  MIC: 32 µg/mL
[2]; enhancement of antibiotic by compound 1 at 1.0 ug/ml
  Fold enhanced, compound 1 1.0 ug/ml: 8
[2]; enhancement of antibiotic by compound 2 at 2.0 ug/ml
  Fold enhanced, compound 2 2.0 ug/ml: 4
[2]; enhancement of antibiotic by compound 3 at 0.6 ug/ml
  Fold enhanced, compound 3 0.6 ug/ml: 16

## CC1(C)S[C@@H]2[C@H](NC(=O)Cc3ccccc3)C(=O)N2[C@H]1C(=O)O [Benzylpenicillin]
[1]
  MIC: 64 µg/mL
  Fold enhanced, compound 1 0.60 ug/ml: 8 (8)
  Fold enhanced, compound 2 0.98 ug/ml: 8 (8)
  Fold enhanced, compound 3 0.30 ug/ml: 16
  Fold enhanced, compound 4 0.75 ug/ml: 8 (8)

## Clc1ccc2c(c1)/C(=C/CCN1CCNCC1)c1ccccc1S2 [Compound 1, N-dealkyl-transclopenthixol]
E. coli
  MIC: 6 µg/mL (≈ 16.8 µM)
E. faecalis
  MIC: 0.6 µg/mL (≈ 1.68 µM)
E. faecium
  MIC: 0.6 µg/mL (≈ 1.68 µM)
S. aureus
  MIC: 3.6 µg/mL (≈ 10.1 µM)
S. epidermidis
  MIC: 2.4 µg/mL (≈ 6.72 µM)
[3]; with Ampicillin
  FIC index: 0.47
[3]; with Ciprofloxacin
  FIC index: 0.47
[3]; with Gentamycin
  FIC index: 0.47
[3]; with Tetracycline
  FIC index: 0.47
[4]
  FIC index: 0.28
[5]; with Ciprofloxacin
  FIC index: 0.28
[5]; with Dicloxacillin
  FIC index: 0.28
[2]; E. coli multiresistant isolates
  Maximal reversal of resistance: concentration of compound: 1.0 µg/mL

## CC[C@H]1OC(=O)[C@H](C)[C@@H](O[C@H]2C[C@@](C)(OC)[C@@H](O)[C@H](C)O2)[C@H](C)[C@@H](O[C@@H]2O[C@H](C)C[C@H](N(C)C)[C@H]2O)[C@](C)(O)C[C@@H](C)C(=O)[C@H](C)[C@@H](O)[C@]1(C)O [Erythromycin]
[1]
  MIC: 16 µg/mL
  Fold enhanced, compound 1 0.60 ug/ml: 4 (4)
  Fold enhanced, compound 2 0.98 ug/ml: 4 (4)
  Fold enhanced, compound 3 0.30 ug/ml: 8
  Fold enhanced, compound 4 0.75 ug/ml: 4 (4)

## OC(Cn1cncn1)(Cn1cncn1)c1ccc(F)cc1F [Fluconazole]
Candida albicans; Table 10A, fluconazole in presence of compound 3 at 0.25 μg/ml, read-out: MIC FL + comp 3 (0.25 μg/m1)
  MIC: 4 µg/mL
Candida albicans; Table 10B (compound 4), fluconazole in presence of compound at 0.50 μg/ml, read-out: MIC FL + comp 3 (0.50 μg/ml)
  MIC: 8 µg/mL
Candida albicans; read-out: MIC Fluconazole (FL)
  MIC: 128 µg/mL
